In the supplement of paper PMC10307832:

Legend:
Experiment in all cases: relative viability (nuclei count vs DMSO), 5 days (fraction); higher = more cells survive
[1] = compound: C=C(c1ccc(C(=O)O)cc1)c1cc2c(cc1C)C(C)(C)CCC2(C)C [Bexarotene] + Nc1ncn([C@H]2C[C@H](O)[C@@H](CO)O2)c(=O)n1 [Decitabine] (partner 2 µM)
In short: (§1)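 Lung cancer cell lines in 1536-well plates were dosed by pin tool the day after seeding, either with one drug alone or with a fixed anchor-drug dose plus five library-drug doses (not always all listed) in √10 steps. After 5 days, cells were fixed and their nuclei stained in one step (final 0.05% Triton X-100, 1% formaldehyde, 1 ug/ml Hoechst), then counted on 4× images. Relative viability is the nuclei count in treated wells divided by that in vehicle wells. Values are medians of duplicate plates.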

[2] = compound: C=C(c1ccc(C(=O)O)cc1)c1cc2c(cc1C)C(C)(C)CCC2(C)C [Bexarotene] + O=C(c1cc(Cc2n[nH]c(=O)c3ccccc23)ccc1F)N1CCN(C(=O)C2CC2)CC1 [Olaparib] (partner 8 µM)
In short: as §1

[3] = compound: C=C(c1ccc(C(=O)O)cc1)c1cc2c(cc1C)C(C)(C)CCC2(C)C [Bexarotene] + CS(=O)(=O)CCNCc1ccc(-c2ccc3ncnc(Nc4ccc(OCc5cccc(F)c5)c(Cl)c4)c3c2)o1 [Lapatinib] (partner 2 µM)
In short: as §1

[4] = compound: C=C(c1ccc(C(=O)O)cc1)c1cc2c(cc1C)C(C)(C)CCC2(C)C [Bexarotene] + NC(=O)Nc1cc(-c2cccc(F)c2)sc1C(=O)N[C@H]1CCCNC1 [AZD7762] (partner 0.2 µM)
In short: as §1

Row | Cell Line | relative viability ([1]; first compound 0.08 µM) | relative viability ([1]; first compound 0.253 µM) | relative viability ([1]; first compound 0.8 µM) | relative viability ([1]; first compound 2.53 µM) | relative viability ([1]; first compound 8 µM) | relative viability ([2]; first compound 0.08 µM) | relative viability ([2]; first compound 0.253 µM) | relative viability ([2]; first compound 0.8 µM) | relative viability ([2]; first compound 2.53 µM) | relative viability ([2]; first compound 8 µM) | relative viability ([3]; first compound 0.08 µM) | relative viability ([3]; first compound 0.253 µM) | relative viability ([3]; first compound 0.8 µM) | relative viability ([3]; first compound 2.53 µM) | relative viability ([3]; first compound 8 µM) | relative viability ([4]; first compound 0.08 µM) | relative viability ([4]; first compound 0.253 µM) | relative viability ([4]; first compound 0.8 µM) | relative viability ([4]; first compound 2.53 µM) | relative viability ([4]; first compound 8 µM)
1 | LCLC-97TM1 | 0.282 | 0.224 | 0.227 | 0.189 | 0.21 | 0.383 | 0.421 | 0.411 | 0.31 | 0.269 | 1.05 | 1.2 | 1.39 | 1.15 | 1.19 | 0.252 | 0.35 | 0.398 | 0.263 | 0.237
2 | LK-2 | 0.387 | 0.308 | 0.321 | 0.35 | 0.279 | 0.97 | 0.632 | 0.981 | 0.652 | 0.841 | 1.33 | 1 | 1.04 | 0.968 | 0.961 | 0.675 | 0.516 | 0.547 | 0.433 | 0.418
3 | LOU-NH91 | 0.854 | 0.841 | 0.833 | 0.773 | 0.717 | 0.905 | 0.932 | 0.875 | 0.841 | 0.823 | 0.736 | 0.755 | 0.691 | 0.695 | 0.722 | 0.85 | 0.766 | 0.759 | 0.741 | 0.712
4 | LU99A | 1.18 | 1 | 0.935 | 0.909 | 0.889 | 0.276 | 0.306 | 0.277 | 0.311 | 0.273 | 1.12 | 0.917 | 0.929 | 0.99 | 1.03 | 0.356 | 0.444 | 0.391 | 0.404 | 0.36
5 | LXF-289 | 0.381 | 0.3 | 0.293 | 0.313 | 0.323 | 1.21 | 1.16 | 1.1 | 1.06 | 1.2 | 1 | 1.07 | 1.04 | 1.07 | 1.03 | 1.21 | 1.34 | 1.32 | 1.37 | 1.48
6 | NCI-H23 | 0.351 | 0.322 | 0.346 | 0.298 | 0.329 | 0.344 | 0.341 | 0.289 | 0.294 | 0.3 | 1.13 | 1.11 | 1.2 | 1.06 | 1.12 | 0.297 | 0.239 | 0.231 | 0.261 | 0.196
7 | NCI-H322M | 0.68 | 0.748 | 0.655 | 0.678 | 0.731 | 0.771 | 0.826 | 0.788 | 0.834 | 0.871 | 0.634 | 0.572 | 0.658 | 0.625 | 0.578 | 0.518 | 0.645 | 0.585 | 0.548 | 0.568
8 | NCI-H358 | 0.212 | 0.216 | 0.184 | 0.222 | 0.185 | 0.855 | 0.596 | 0.573 | 0.625 | 0.551 | 0.461 | 0.464 | 0.483 | 0.574 | 0.535 | 0.546 | 0.511 | 0.505 | 0.49 | 0.572
9 | NCI-H460 | 0.581 | 0.505 | 0.448 | 0.499 | 0.381 | 0.54 | 0.568 | 0.409 | 0.536 | 0.492 | 1.01 | 1.03 | 0.948 | 0.981 | 0.731 | 0.694 | 0.701 | 0.701 | 0.668 | 0.735
10 | NCI-H596 | 1.11 | 0.966 | 0.974 | 1.09 | 1.02 | 0.715 | 0.679 | 0.85 | 0.672 | 0.817 | 1.07 | 1 | 0.783 | 0.916 | 0.928 | 1.19 | 1.01 | 1.01 | 0.976 | 1.02
11 | NCI-H647 | 0.439 | 0.394 | 0.412 | 0.419 | 0.335 | 0.725 | 0.629 | 0.64 | 0.447 | 0.464 | 1.33 | 1.17 | 1.19 | 1.24 | 0.964 | 0.429 | 0.463 | 0.459 | 0.272 | 0.33
12 | NCI-H650 | 0.284 | 0.263 | 0.328 | 0.301 | 0.309 | 0.325 | 0.432 | 0.354 | 0.356 | 0.382 | 1.08 | 1.06 | 0.915 | 0.634 | 0.778 | 1.13 | 0.986 | 1.17 | 0.709 | 1.05
13 | NCI-H727 | 1.02 | 0.748 | 0.826 | 0.847 | 0.885 | 0.778 | 0.694 | 0.804 | 0.691 | 0.807 | 1.02 | 0.887 | 0.881 | 0.762 | 0.811 | 0.537 | 0.635 | 0.598 | 0.617 | 0.633
14 | NCI-H838 | 0.521 | 0.423 | 0.499 | 0.515 | 0.445 | 0.809 | 0.784 | 0.74 | 0.725 | 0.745 | 1.05 | 1.19 | 0.974 | 1.14 | 1.03 | 1.03 | 1.09 | 0.989 | 0.978 | 0.938
15 | NCI-H1355 | 0.379 | 0.332 | 0.416 | 0.388 | 0.346 | 0.805 | 0.76 | 0.781 | 0.785 | 0.778 | 1.02 | 1.1 | 0.898 | 1.1 | 0.936 | 0.868 | 0.841 | 0.671 | 0.9 | 0.682
16 | NCI-H1395 | 0.801 | 0.686 | 0.72 | 0.713 | 0.731 | 0.441 | 0.543 | 0.476 | 0.459 | 0.504 | 1.05 | 0.935 | 0.926 | 0.902 | 0.997 | 0.399 | 0.432 | 0.39 | 0.407 | 0.39
